Experimental data published in patent US20230233569A1 (Revolution Medicines, Inc., priority 2020, published 2023).
Values joined by “and” are separate entries in the source; they are usually repeats but may differ in a detail not shown here. Equal entries are not always repeated.

Assays:
Capan-1 (K-Ras G12V) = experiment: CellTiter-Glo cell viability assay, 5-day treatment; assay type: cell-based; details: Homo sapiens, CAPAN-1, 120 h, 5-day treatment; read-out: Capan-1 Cell Viability assay data (K-Ras G12V, IC50)
Outline: (§1)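 Viability is read as luminescence on day 5 after direct compound addition to plated cells, following about 30 minutes' room-temperature equilibration. Each signal is scaled to mean DMSO as 100%.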

NCI-H358 (K-Ras G12C) = experiment: as above; assay type: cell-based; details: Homo sapiens, NCI-H358, 120 h, 5-day treatment; read-out: H358 Cell Viability assay data (K-Ras G12C, IC50)
Outline: as §1

KRAS G12C = KRAS G12C (Homo sapiens, UniProt P01116+P62937, G12C); experiment: Disruption of BRAF RBD interaction with Ras (FRET / MOA assay, with Cyclophilin A); assay type: biochemical; details: read-out: KRAS G12C FRET data, IC50
KRAS G12C, sequence (P01116 1-169 isoform P01116-2 G12C): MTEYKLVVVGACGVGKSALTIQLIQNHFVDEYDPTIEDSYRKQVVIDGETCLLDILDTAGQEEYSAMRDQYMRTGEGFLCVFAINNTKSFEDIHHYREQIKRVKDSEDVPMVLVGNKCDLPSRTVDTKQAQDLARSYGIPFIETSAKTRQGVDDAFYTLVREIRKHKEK
KRAS G12C, sequence (P62937 whole entry): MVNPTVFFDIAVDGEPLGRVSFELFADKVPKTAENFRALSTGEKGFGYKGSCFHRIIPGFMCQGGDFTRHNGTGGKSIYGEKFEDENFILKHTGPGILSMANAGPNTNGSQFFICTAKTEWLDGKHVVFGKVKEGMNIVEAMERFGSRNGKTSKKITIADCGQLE
Outline: (§2)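 TR-FRET readout: a drop in ratio relative to DMSO wells marks disruption of the K-Ras:BRAF RBD complex via compound-induced K-Ras–Cyclophilin A ternary complex. Dosing used ten 3-fold steps from 30 μM final, 3 h at 25 °C, then Eu-anti-His 10 nM plus APC-anti-GST 50 nM for another 1.5 h. Values are IC50s.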

KRAS G12D = KRAS G12D (Homo sapiens, UniProt P01116+P62937, G12D); experiment: as above; assay type: biochemical; details: read-out: KRAS G12D FRET data, IC50
KRAS G12D, sequence (P01116 1-169 isoform P01116-2 G12D limits assumed): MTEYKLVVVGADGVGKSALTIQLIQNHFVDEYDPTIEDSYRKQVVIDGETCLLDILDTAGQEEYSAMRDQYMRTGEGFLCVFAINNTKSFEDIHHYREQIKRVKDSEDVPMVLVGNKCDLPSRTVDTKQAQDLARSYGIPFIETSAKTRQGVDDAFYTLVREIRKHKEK
KRAS G12D, sequence (P62937 whole entry): as the sequence (P62937 whole entry) above
Outline: as §2

KRAS G12S = KRAS G12S (Homo sapiens, UniProt P01116+P62937, G12S); experiment: as above; assay type: biochemical; details: read-out: KRAS G12S FRET data, IC50
KRAS G12S, sequence (P01116 1-169 isoform P01116-2 G12S limits assumed): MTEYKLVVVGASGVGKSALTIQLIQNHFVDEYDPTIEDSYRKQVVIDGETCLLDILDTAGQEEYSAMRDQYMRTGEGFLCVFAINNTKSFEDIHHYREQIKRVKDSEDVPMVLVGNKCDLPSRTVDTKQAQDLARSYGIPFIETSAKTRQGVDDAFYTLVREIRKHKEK
KRAS G12S, sequence (P62937 whole entry): as the sequence (P62937 whole entry) above
Outline: as §2

KRAS G12V = KRAS G12V (Homo sapiens, UniProt P01116+P62937, G12V); experiment: as above; assay type: biochemical; details: KRAS G12V; read-out: KRAS G12V FRET data IC50
KRAS G12V, sequence (P01116 1-169 isoform P01116-2 G12V limits assumed): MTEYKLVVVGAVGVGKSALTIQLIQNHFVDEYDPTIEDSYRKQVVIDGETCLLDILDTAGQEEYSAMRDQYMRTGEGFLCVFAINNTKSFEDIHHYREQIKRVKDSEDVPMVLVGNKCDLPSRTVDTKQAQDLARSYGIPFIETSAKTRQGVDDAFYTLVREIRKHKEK
KRAS G12V, sequence (P62937 whole entry): as the sequence (P62937 whole entry) above
Outline: as §2

KRAS G13C = KRAS G13C (Homo sapiens, UniProt P01116+P62937, G13C); experiment: as above; assay type: biochemical; details: read-out: KRAS G13C FRET data, IC50
KRAS G13C, sequence (P01116 1-169 isoform P01116-2 G13C): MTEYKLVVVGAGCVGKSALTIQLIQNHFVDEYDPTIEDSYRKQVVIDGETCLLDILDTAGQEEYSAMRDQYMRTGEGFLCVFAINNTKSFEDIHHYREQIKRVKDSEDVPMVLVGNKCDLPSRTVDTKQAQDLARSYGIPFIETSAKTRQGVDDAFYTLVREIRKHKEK
KRAS G13C, sequence (P62937 whole entry): as the sequence (P62937 whole entry) above
Outline: as §2

KRAS G13D = KRAS G13D (Homo sapiens, UniProt P01116+P62937, G13D); experiment: as above; assay type: biochemical; details: KRAS G13D; read-out: KRAS G13D FRET data IC50
KRAS G13D, sequence (P01116 1-169 isoform P01116-2 G13D limits assumed): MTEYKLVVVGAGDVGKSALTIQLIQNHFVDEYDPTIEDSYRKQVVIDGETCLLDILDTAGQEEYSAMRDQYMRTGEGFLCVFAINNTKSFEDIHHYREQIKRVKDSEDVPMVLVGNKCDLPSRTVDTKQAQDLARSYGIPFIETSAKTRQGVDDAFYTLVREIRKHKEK
KRAS G13D, sequence (P62937 whole entry): as the sequence (P62937 whole entry) above
Outline: as §2

KRAS WT = KRAS WT (Homo sapiens, UniProt P01116+P62937); experiment: as above; assay type: biochemical; details: KRAS WT; read-out: KRAS WT FRET data IC50
KRAS WT, sequence (P01116 1-169 isoform P01116-2 limits assumed): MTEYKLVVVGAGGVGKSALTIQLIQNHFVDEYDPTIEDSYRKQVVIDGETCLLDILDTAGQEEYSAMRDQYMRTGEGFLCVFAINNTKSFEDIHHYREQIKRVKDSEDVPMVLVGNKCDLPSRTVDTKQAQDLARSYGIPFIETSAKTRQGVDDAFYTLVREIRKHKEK
KRAS WT, sequence (P62937 whole entry): as the sequence (P62937 whole entry) above
Outline: as §2

NRAS G12C = NRAS G12C (Homo sapiens, UniProt P01111+P62937, G12C); experiment: as above; assay type: biochemical; details: NRAS G12C; read-out: NRAS G12C FRET data IC50
NRAS G12C, sequence (P01111 whole entry G12C): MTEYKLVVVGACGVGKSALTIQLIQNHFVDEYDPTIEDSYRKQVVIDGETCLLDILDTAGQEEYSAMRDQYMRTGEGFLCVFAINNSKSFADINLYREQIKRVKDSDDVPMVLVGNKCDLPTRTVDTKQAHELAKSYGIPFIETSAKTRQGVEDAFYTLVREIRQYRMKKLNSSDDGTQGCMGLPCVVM
NRAS G12C, sequence (P62937 whole entry): as the sequence (P62937 whole entry) above

Question: For CCn1c(-c2cccnc2[C@H](C)OC)c2c3cc(ccc31)-c1cc(O)cc(c1)C[C@H](NC(=O)[C@H](C(C)C)N(C)C(=O)C1(N)CC1)C(=O)N1CCC[C@H](N1)C(=O)OCC(C)(C)C2 [Example A168], which IC50 (Capan-1 (K-Ras G12V)) is on record?
Answer: 100 to 1000 nM

Question: And the IC50 (NCI-H358 (K-Ras G12C))?
Answer: 100 to 1000 nM

Question: And the IC50 (KRAS G12C)?
Answer: 10 to 100 nM

Question: What about the IC50 (KRAS G12D) of the same compound?
Answer: 100 to 1000 nM

Question: What about the IC50 (KRAS G12S) of the same compound?
Answer: 100 to 1000 nM

Question: And the IC50 (KRAS G12V)?
Answer: 100 to 1000 nM

Question: And the IC50 (KRAS G13C)?
Answer: 10 to 100 nM

Question: And the IC50 (KRAS G13D)?
Answer: 100 to 1000 nM

Question: What about the IC50 (KRAS WT) of the same compound?
Answer: 10 to 100 nM

Question: And the IC50 (NRAS G12C)?
Answer: 10 to 100 nM

Question: What does the source list for CCn1c(-c2cccnc2[C@H](C)OC)c2c3cc(ccc31)-c1cc(O)cc(c1)C[C@H](NC(=O)[C@H](C(C)C)N(C)C(=O)N1CC(N(C)C)C1)C(=O)N1CCC[C@H](N1)C(=O)OCC(C)(C)C2 [Example A171]?
Answer: IC50 (Capan-1 (K-Ras G12V)): 100 to 1000 nM; IC50 (NCI-H358 (K-Ras G12C)): 100 to 1000 nM; IC50 (KRAS G12C): 100 to 1000 nM; IC50 (KRAS G12D): 100 to 1000 nM; IC50 (KRAS G12S): 100 to 1000 nM; IC50 (KRAS G12V): 100 to 1000 nM; IC50 (KRAS G13C): 10 to 100 nM; IC50 (KRAS G13D): 100 to 1000 nM; IC50 (KRAS WT): 100 to 1000 nM; IC50 (NRAS G12C): 100 to 1000 nM

Question: CCn1c(-c2cccnc2[C@H](C)OC)c2c3cc(ccc31)-c1cc(O)cc(c1)C[C@H](NC(=O)C(C1CC1)C1CC1)C(=O)N1CCC[C@H](N1)C(=O)OCC(C)(C)C2 [Example A184] was tested. Which IC50 (Capan-1 (K-Ras G12V)) did it give?
Answer: 1000 to 10000 nM

Question: What about the IC50 (NCI-H358 (K-Ras G12C)) of the same compound?
Answer: 100 to 1000 nM

Question: And the IC50 (KRAS G12C)?
Answer: 100 to 1000 nM

Question: What about the IC50 (KRAS G12D) of the same compound?
Answer: 1000 to 10000 nM

Question: And the IC50 (KRAS G12S)?
Answer: 100 to 1000 nM

Question: What about the IC50 (KRAS G12V) of the same compound?
Answer: 100 to 1000 nM

Question: What about the IC50 (KRAS G13C) of the same compound?
Answer: 10 to 100 nM

Question: What about the IC50 (KRAS G13D) of the same compound?
Answer: 100 to 1000 nM

Question: And the IC50 (KRAS WT)?
Answer: 100 to 1000 nM

Question: What about the IC50 (NRAS G12C) of the same compound?
Answer: 100 to 1000 nM

Question: CCn1c(-c2cccnc2[C@H](C)OC)c2c3cc(ccc31)-c1cc(O)cc(c1)C[C@H](NC(=O)[C@H](C(C)C)N(C)C(=O)O[C@H]1CCOC1)C(=O)N1CCC[C@H](N1)C(=O)OCC(C)(C)C2 [Example A209] was tested. Which IC50 (Capan-1 (K-Ras G12V)) did it give?
Answer: 100 to 1000 nM

Question: What about the IC50 (NCI-H358 (K-Ras G12C)) of the same compound?
Answer: 100 to 1000 nM

Question: And the IC50 (KRAS G12C)?
Answer: 100 to 1000 nM

Question: What about the IC50 (KRAS G12D) of the same compound?
Answer: 100 to 1000 nM

Question: And the IC50 (KRAS G12S)?
Answer: 100 to 1000 nM

Question: And the IC50 (KRAS G12V)?
Answer: 100 to 1000 nM

Question: What about the IC50 (KRAS G13C) of the same compound?
Answer: 100 to 1000 nM

Question: And the IC50 (KRAS G13D)?
Answer: 100 to 1000 nM

Question: What about the IC50 (KRAS WT) of the same compound?
Answer: 100 to 1000 nM

Question: What about the IC50 (NRAS G12C) of the same compound?
Answer: 100 to 1000 nM

Question: CCn1c(-c2cccnc2[C@H](C)OC)c2c3cc(ccc31)-c1cc(O)cc(c1)C[C@H](NC(=O)[C@H](C(C)C)N(C)C(=O)C1NCCC1C(C)C)C(=O)N1CCC[C@H](N1)C(=O)OCC(C)(C)C2 (some centres unmarked) [Example A227] was tested. Which IC50 (Capan-1 (K-Ras G12V)) did it give?
Answer: > 10000 nM

Question: What about the IC50 (NCI-H358 (K-Ras G12C)) of the same compound?
Answer: 1000 to 10000 nM

Question: And the IC50 (KRAS G12C)?
Answer: 100 to 1000 nM and 10 to 100 nM

Question: What about the IC50 (KRAS G12D) of the same compound?
Answer: 100 to 1000 nM and 10 to 100 nM

Question: What about the IC50 (KRAS G12S) of the same compound?
Answer: 100 to 1000 nM and 10 to 100 nM

Question: What about the IC50 (KRAS G12V) of the same compound?
Answer: 100 to 1000 nM and 1000 to 10000 nM

Question: What about the IC50 (KRAS G13C) of the same compound?
Answer: 10 to 100 nM

Question: What about the IC50 (KRAS G13D) of the same compound?
Answer: 10 to 100 nM

Question: And the IC50 (KRAS WT)?
Answer: 100 to 1000 nM and 10 to 100 nM

Question: What about the IC50 (NRAS G12C) of the same compound?
Answer: 100 to 1000 nM

Question: Which results are given for CCn1c(-c2cccnc2[C@H](C)OC)c2c3cc(ccc31)-c1cc(O)cc(c1)C[C@H](NC(=O)[C@H](C(C)C)N(C)C(=O)C1NCCC13CC3)C(=O)N1CCC[C@H](N1)C(=O)OCC(C)(C)C2 (some centres unmarked) [Example A228]?
Answer: IC50 (Capan-1 (K-Ras G12V)): 100 to 1000 nM; IC50 (NCI-H358 (K-Ras G12C)): 100 to 1000 nM; IC50 (KRAS G12C): 10 to 100 nM; IC50 (KRAS G12D): 10 to 100 nM; IC50 (KRAS G12S): 10 to 100 nM; IC50 (KRAS G12V): 100 to 1000 nM; IC50 (KRAS G13C): 10 to 100 nM; IC50 (KRAS G13D): 10 to 100 nM; IC50 (KRAS WT): 10 to 100 nM; IC50 (NRAS G12C): 10 to 100 nM

Question: How did the IC50 (Capan-1 (K-Ras G12V)) turn out when CCn1c(-c2cccnc2[C@H](C)OC)c2c3cc(ccc31)-c1cc(O)cc(c1)C[C@H](NC(=O)[C@H](C(C)C)N(C)C(=O)C1(CO)CC1)C(=O)N1CCC[C@H](N1)C(=O)OCC(C)(C)C2 [Example A232] was run?
Answer: 100 to 1000 nM

Question: What about the IC50 (NCI-H358 (K-Ras G12C)) of the same compound?
Answer: 100 to 1000 nM

Question: And the IC50 (KRAS G12C)?
Answer: 100 to 1000 nM

Question: And the IC50 (KRAS G12D)?
Answer: 100 to 1000 nM

Question: And the IC50 (KRAS G12S)?
Answer: 100 to 1000 nM

Question: And the IC50 (KRAS G12V)?
Answer: 100 to 1000 nM

Question: And the IC50 (KRAS G13C)?
Answer: 100 to 1000 nM

Question: And the IC50 (KRAS G13D)?
Answer: 100 to 1000 nM

Question: What about the IC50 (KRAS WT) of the same compound?
Answer: 100 to 1000 nM

Question: And the IC50 (NRAS G12C)?
Answer: 100 to 1000 nM

Question: How did the IC50 (Capan-1 (K-Ras G12V)) turn out when CCn1c(-c2cccnc2[C@H](C)OC)c2c3cc(ccc31)-c1cc(O)cc(c1)C[C@H](NC(=O)[C@H](C(C)C)N(C)C(=O)[C@H]1CCN(C(=O)OC(C)(C)C)C1)C(=O)N1CCC[C@H](N1)C(=O)OCC(C)(C)C2 [Example A233] was run?
Answer: 10 to 100 nM

Question: And the IC50 (NCI-H358 (K-Ras G12C))?
Answer: 10 to 100 nM

Question: And the IC50 (KRAS G12C)?
Answer: 10 to 100 nM

Question: What about the IC50 (KRAS G12D) of the same compound?
Answer: 100 to 1000 nM

Question: What about the IC50 (KRAS G12S) of the same compound?
Answer: 100 to 1000 nM

Question: What about the IC50 (KRAS G12V) of the same compound?
Answer: 10 to 100 nM

Question: What about the IC50 (KRAS G13C) of the same compound?
Answer: 10 to 100 nM

Question: What about the IC50 (KRAS G13D) of the same compound?
Answer: 100 to 1000 nM

Question: What about the IC50 (KRAS WT) of the same compound?
Answer: 100 to 1000 nM

Question: What about the IC50 (NRAS G12C) of the same compound?
Answer: 10 to 100 nM
